Data on 7 cell lines can be found in the supplement of paper PMC10307832.

What all share (test): relative viability (nuclei count vs DMSO), 5 days (fraction); higher = more cells survive
Compound in test [1]: C1=CC=C(C(=C1)C2=CC=C(C=C2)C3=CSC4=C3C(=C(C(=O)N4)C#N)O)O + CC(=O)Nc1cccc(-n2c(=O)n(C3CC3)c(=O)c3c(Nc4ccc(I)cc4F)n(C)c(=O)c(C)c32)c1 [Trametinib] (partner 0.02 µM)
Summed up:
(§1)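 Relative viability was taken as the ratio of nuclei in treated wells to nuclei in vehicle wells. Lung cancer cell lines in 1536-well plates received compounds by pin tool one day after seeding, either one drug alone or a fixed anchor-drug dose plus five library-drug doses (not always all listed) in √10 steps. Nuclei were counted on 4× images after 5 days of treatment, and values are medians of duplicate plates.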

Compound in test [2]: C1=CC=C(C(=C1)C2=CC=C(C=C2)C3=CSC4=C3C(=C(C(=O)N4)C#N)O)O + CS(=O)(=O)N1CCN(Cc2cc3nc(-c4cccc5[nH]ncc45)nc(N4CCOCC4)c3s2)CC1 [Pictilisib] (partner 1 µM)
The procedure, abridged: as §1

Compound in the test “TGX 221 + Alpelisib”: CC1=CN2C(=O)C=C(N=C2C(=C1)C(C)NC3=CC=CC=C3)N4CCOCC4 [TGX 221] + Cc1nc(NC(=O)N2CCC[C@H]2C(N)=O)sc1-c1ccnc(C(C)(C)C(F)(F)F)c1 [Alpelisib] (partner 2 µM)
The procedure, abridged:
as §1

Compound in test [3]: O=C(CCCCCCNC(=O)c1cnc(N(c2ccccc2)c2ccccc2)nc1)NO [Ricolinostat] + N=C(N)NC(=N)NCCc1ccccc1 [Phenformin] (partner 250 µM)
The procedure, abridged:
as §1

In the case of NCI-H1734, the relative viability stood at 0.57 in test [1] (first compound 0.08 µM); 0.666 in test [1] (first compound 0.253 µM); 0.728 in test [1] (first compound 0.8 µM); 0.669 in test [1] (first compound 2.53 µM); 0.559 in test [1] (first compound 8 µM); 0.46 in test [2] (first compound 0.08 µM). Also, the relative viability in test [2] (first compound 0.253 µM) was found to be 0.485; in test [2] (first compound 0.8 µM), 0.444; in test [2] (first compound 2.53 µM), 0.477; in test [2] (first compound 8 µM), 0.493; in the test with TGX 221 + Alpelisib (first compound 0.08 µM), 0.619; with TGX 221 + Alpelisib (first compound 0.253 µM), 0.509. In addition, the relative viability with TGX 221 + Alpelisib (first compound 0.8 µM) came to 0.562; with TGX 221 + Alpelisib (first compound 2.53 µM), 0.448; with TGX 221 + Alpelisib (first compound 8 µM) it was 0.448; in test [3] (first compound 0.08 µM), 0.35; in test [3] (first compound 0.253 µM), 0.452; in test [3] (first compound 0.8 µM) it was 0.351. Besides, the relative viability in test [3] (first compound 2.53 µM) is 0.466.

As for NCI-H1755, the relative viability in test [1] (first compound 0.08 µM) is 0.758; in test [1] (first compound 0.253 µM), 0.775; in test [1] (first compound 0.8 µM), 0.8; in test [1] (first compound 2.53 µM), 0.862; in test [1] (first compound 8 µM), 0.797; in test [2] (first compound 0.08 µM), 0.279. For the same cell line, the relative viability amounted to 0.59 in test [2] (first compound 0.253 µM); 0.381 in test [2] (first compound 0.8 µM); 0.396 in test [2] (first compound 2.53 µM); 0.383 in test [2] (first compound 8 µM); 0.876 with TGX 221 + Alpelisib (first compound 0.08 µM); 0.706 in the test with TGX 221 + Alpelisib (first compound 0.253 µM). The relative viability with TGX 221 + Alpelisib (first compound 0.8 µM) worked out at 0.651; with TGX 221 + Alpelisib (first compound 2.53 µM), 0.49; in the test with TGX 221 + Alpelisib (first compound 8 µM), 0.437; in test [3] (first compound 0.08 µM) it was 0.45; in test [3] (first compound 0.253 µM), 0.6; in test [3] (first compound 0.8 µM), 0.608. The relative viability in test [3] (first compound 2.53 µM) turned out to be 0.604.

In the case of NCI-H1793, the relative viability was 0.354 in test [1] (first compound 0.08 µM); 0.738 in test [1] (first compound 0.253 µM); 0.428 in test [1] (first compound 0.8 µM); 0.446 in test [1] (first compound 2.53 µM); 0.34 in test [1] (first compound 8 µM); 0.379 in test [2] (first compound 0.08 µM). Moreover, the relative viability in test [2] (first compound 0.253 µM) came to 0.352; in test [2] (first compound 0.8 µM), 0.269; in test [2] (first compound 2.53 µM) it was 0.312; in test [2] (first compound 8 µM), 0.242; in the test with TGX 221 + Alpelisib (first compound 0.08 µM) it was 0.611; with TGX 221 + Alpelisib (first compound 0.253 µM) it was 0.503. The relative viability with TGX 221 + Alpelisib (first compound 0.8 µM) was 0.482; with TGX 221 + Alpelisib (first compound 2.53 µM), 0.446; in the test with TGX 221 + Alpelisib (first compound 8 µM) it was 0.406; in test [3] (first compound 0.253 µM), 0.438; in test [3] (first compound 0.8 µM) it was 0.355; in test [3] (first compound 2.53 µM), 0.369.

As to NCI-H1915, the relative viability in test [1] (first compound 0.08 µM) stood at 0.304; in test [1] (first compound 0.253 µM), 0.303; in test [1] (first compound 0.8 µM), 0.505; in test [1] (first compound 2.53 µM) it was 0.314; in test [1] (first compound 8 µM), 0.316; in test [2] (first compound 0.08 µM), 0.926. Besides, the relative viability was 1.05 in test [2] (first compound 0.253 µM); 0.784 in test [2] (first compound 0.8 µM); 0.927 in test [2] (first compound 2.53 µM); 0.884 in test [2] (first compound 8 µM); 1 with TGX 221 + Alpelisib (first compound 0.08 µM); 0.999 with TGX 221 + Alpelisib (first compound 0.253 µM). Besides, the relative viability in the test with TGX 221 + Alpelisib (first compound 0.8 µM) came to 1.08; with TGX 221 + Alpelisib (first compound 2.53 µM), 1.1; with TGX 221 + Alpelisib (first compound 8 µM), 1.01; in test [3] (first compound 0.08 µM), 0.324; in test [3] (first compound 0.253 µM), 0.358; in test [3] (first compound 0.8 µM) it was 0.347. The relative viability in test [3] (first compound 2.53 µM) amounted to 0.363.

As for NCI-H1944, the relative viability in test [1] (first compound 0.08 µM) was 0.459; in test [1] (first compound 0.253 µM) it was 0.396; in test [1] (first compound 0.8 µM), 0.357; in test [1] (first compound 2.53 µM) it was 0.423; in test [1] (first compound 8 µM), 0.434; in test [2] (first compound 0.08 µM), 0.349. Besides, the relative viability in test [2] (first compound 0.253 µM) was determined as 0.39; in test [2] (first compound 0.8 µM) it was 0.317; in test [2] (first compound 2.53 µM), 0.343; in test [2] (first compound 8 µM) it was 0.357; with TGX 221 + Alpelisib (first compound 0.08 µM), 0.77; in the test with TGX 221 + Alpelisib (first compound 0.253 µM) it was 0.713. For the same cell line, the relative viability with TGX 221 + Alpelisib (first compound 0.8 µM) amounted to 0.554; with TGX 221 + Alpelisib (first compound 2.53 µM) it was 0.488; with TGX 221 + Alpelisib (first compound 8 µM), 0.422; in test [3] (first compound 0.08 µM), 0.181; in test [3] (first compound 0.253 µM), 0.18; in test [3] (first compound 0.8 µM) it was 0.174. Moreover, the relative viability in test [3] (first compound 2.53 µM) is 0.151.

For NCI-H1975, the relative viability in test [1] (first compound 0.08 µM) was determined as 0.348; in test [1] (first compound 0.253 µM), 0.412; in test [1] (first compound 0.8 µM), 0.337; in test [1] (first compound 2.53 µM) it was 0.311; in test [1] (first compound 8 µM) it was 0.345; in test [2] (first compound 0.08 µM), 0.272. In addition, the relative viability was found to be 0.308 in test [2] (first compound 0.253 µM); 0.231 in test [2] (first compound 0.8 µM); 0.271 in test [2] (first compound 2.53 µM); 0.264 in test [2] (first compound 8 µM); 0.585 in the test with TGX 221 + Alpelisib (first compound 0.08 µM); 0.454 with TGX 221 + Alpelisib (first compound 0.253 µM). Further, the relative viability was determined as 0.465 with TGX 221 + Alpelisib (first compound 0.8 µM); 0.446 with TGX 221 + Alpelisib (first compound 2.53 µM); 0.362 with TGX 221 + Alpelisib (first compound 8 µM); 0.377 in test [3] (first compound 0.08 µM); 0.413 in test [3] (first compound 0.253 µM); 0.396 in test [3] (first compound 0.8 µM). In addition, the relative viability in test [3] (first compound 2.53 µM) was found to be 0.401.

For NCI-H1993, the relative viability in test [1] (first compound 0.08 µM) was 0.479; in test [1] (first compound 0.253 µM) it was 0.502; in test [1] (first compound 0.8 µM), 0.495; in test [1] (first compound 2.53 µM) it was 0.565; in test [1] (first compound 8 µM), 0.542; in test [2] (first compound 0.08 µM), 0.901. Also, the relative viability is 1.01 in test [2] (first compound 0.253 µM); 0.762 in test [2] (first compound 0.8 µM); 0.902 in test [2] (first compound 2.53 µM); 0.828 in test [2] (first compound 8 µM); 0.64 with TGX 221 + Alpelisib (first compound 0.08 µM); 0.57 in the test with TGX 221 + Alpelisib (first compound 0.253 µM). In addition, the relative viability was found to be 0.723 with TGX 221 + Alpelisib (first compound 0.8 µM); 0.616 in the test with TGX 221 + Alpelisib (first compound 2.53 µM); 0.651 with TGX 221 + Alpelisib (first compound 8 µM); 0.48 in test [3] (first compound 0.253 µM); 0.508 in test [3] (first compound 0.8 µM); 0.339 in test [3] (first compound 2.53 µM).
